“And” between values parts separate entries of the source, which are not always exact repeats. Identical values can stand only once. “Also recorded” adds a separate entry of the source.
Assays:
Format in all cases: in vivo, mouse
[1] = test system: plasma hAβ1-40; assay: Plasma hAβ1-40 level in mice by ELISA; conditions: EP 0.5 mg/kg i.p. daily 5 days, hAβ1-40 40 μg/kg 1 h after fifth dose, 6 h
Description: Male C57BL/6 mice (7-8 weeks of age) were purchased from Taconic and were treated with vehicle (PBS) and EP (0.5 mg/kg) i.p. once daily for 5 days. […] Blood was collected into K3 EDTA-containing tubes (Multivette 600 from Sarstedt). […] The plates were washed three times with phosphate buffered saline with tween-20 (PBST) and the coated wells were blocked by incubation with 200 μl/well of 1% BSA in PBS for at least 2 h at room temperature (RT). […] The plates were washed again with PBST, and each well was incubated with a goat anti-rabbit IgG-HRP conjugate (100 μl) for 1 h at RT.

[2] = test system: plasma coagulation factors FXII, PK, HMWK, FXI, FIX, FX, FII, FI and FVII; assay: Changes in plasma coagulation factors in mice by IB (FI by ELISA)
Description: Animal studies. […] Male mice at 7-8 weeks of age were used, including wild type (WT) mice (C57BL/6), and mice deficient in FXII (C57BL/6-FXII^−/−) or FVII (C57BL/6-FVII^tTA/tTA). WT C57BL/6 mice were purchased from Taconic. C57BL/6-FXII^−/− mice and C57BL/6-FVII^tTA/tTA mice were bred in our own facility and genotyped. […] CCl4 was dissolved in corn oil, whereas all other substances were dissolved in PBS. The vehicle or the test substance was given to mice in 0.1 ml volume per 20 g body weight. Blood was collected from the mice at specific times by cardiac puncture at the time of sacrifice by carbon dioxide, and heart, liver and kidney were also collected from some of the mice. Blood was collected into K3 EDTA-containing tubes (Multivette 600 from Sarstedt), unless specified otherwise. All blood samples were promptly centrifuged to obtain plasma samples.
The plates were washed three times with phosphate buffered saline tween-20 (PBST) and the coated wells were blocked by incubation with 200 μl/well of 1% BSA in PBS for at least 2 h at RT. […] The plates were washed again with PBST, and each well was incubated with a goat anti-rabbit IgG-HRP conjugate (100 μl) for 1 h at RT. After yet another round of wash with PBST, each well was incubated with 100 μl of HRP substrate 3,3′,5,5′-tetramethylbenzedine (Cell Signaling, 7004). Upon adequate color development, 100 μl of stop solution (Cell Signaling, 7002) was added to each well, and absorbance at 450 nm was promptly recorded by a microtiter plate reader. Plasma FI concentration was determined using an assay kit (400-374-130050) from GenWay Biotech, following the manufacturer's instruction.
IB. Tissue samples were mixed with RIPA buffer (25 mM Tris-HCl, pH 7.6, 150 mM NaCl, 1% Nonidet P-40, 1% sodium deoxycholate, 0.1% SDS), supplemented with 2 mM phenylmethanesulfonyl fluoride, a proteinase inhibitor mix (Roche Applied Science) and phosphatase inhibitor Cocktail 2 (Sigma-Aldrich). Tissue samples were stroked in a Dounce homogenizer, and the homogenates were cleared by centrifugation at 12,000×g for 15 min at 4° C. Protein concentrations in all samples were measured by the BCA assay kit. Plasma samples were used without further processing (20 μl per sample). Each sample was mixed with 4× loading dye, heated for 5 min at 95° C. and then resolved by SDS-PAGE (8-12.5%). […] The proteins were transferred to polyvinylidene fluoride membrane, probed with specific antibodies and detected using the ECL Plus Kit (Amersham) or the SuperSignal West Pico Kit (Thermo Scientific).

[3] = test system: coagulation factors FX, FII and FVII; assay: Coagulation proteases in J20 AD mice by western blotting; conditions: AD mice at 1 month and 3 months of age, EP 0.5 mg/kg i.p. daily 5 days
Description: (§1) B6.Cg-Tg(PDGFB-APPSwlnd) 20 Lms/2 JMjax mice, also known as J20 mice, were purchased from Jackson Laboratory. J20 mice express a mutant form of the human Aβ precursor protein (APP) bearing both the Swedish (K670N/M671L) and the Indiana (V717F) mutations (APPSwlnd) (Mucke et al., J Neurosci, 2000, 20, 4050-4058). Neural expression of the transgenic insert is directed by the human platelet-derived growth factor beta polypeptide (PDGFB) promoter. J20 mice in C57BL/6 background (male hemizygotes) were bred to wild type (WT) female C57BL/6J mice (also purchased from Jackson Laboratory). F1 mice were genotyped by PCR at weaning to identify the hemizygotes and the non-transgenic littermates. Mice at age of 1 month and 3 months were treated once daily with vehicle or EP (0.5 mg/kg) i.p for 5 days. EP was given in PBS (0.1 ml per 20 g body weight). Blood was collected from the mice at 6 h after the last PBS/EP dose by cardiac puncture at the time of sacrifice by carbon dioxide. Blood was collected into K3 EDTA-containing tubes (Multivette 600 from Sarstedt).

[4] = test system: plasma Aβ1-42; assay: Plasma Aβ1-42 concentration in mice by ELISA; conditions: WT mice, EP 2.5 mg/kg i.p. daily 5 days
Description: Animal studies. All animal studies were performed in accordance with protocols approved by the Institutional Animal Care and Use Committee at Roswell Park Cancer Institute. Male mice at 7-8 weeks of age were used, including wild type (WT) mice (C57BL/6), and mice deficient in FXII (C57BL/6-FXII^−/−) or FVII (C57BL/6-FVII^tTA/tTA). WT C57BL/6 mice were purchased from Taconic. C57BL/6-FXII^−/− mice and C57BL/6-FVII^tTA/tTA mice were bred in our own facility and genotyped. […] CCl4 was dissolved in corn oil, whereas all other substances were dissolved in PBS. The vehicle or the test substance was given to mice in 0.1 ml volume per 20 g body weight. Blood was collected from the mice at specific times by cardiac puncture at the time of sacrifice by carbon dioxide, and heart, liver and kidney were also collected from some of the mice. Blood was collected into K3 EDTA-containing tubes (Multivette 600 from Sarstedt), unless specified otherwise. All blood samples were promptly centrifuged to obtain plasma samples.

[5] = test system: plasma PEPD; assay: Plasma PEPD concentration in mice by ELISA; conditions: for average plasma level of total PEPD, higher than with hPEPD alone: hPEPD 0.2 mg/kg 1 h after last EP dose
Description: Animal studies. All animal studies were performed in accordance with protocols approved by the Institutional Animal Care and Use Committee at Roswell Park Cancer Institute. Male mice at 7-8 weeks of age were used, including wild type (WT) mice (C57BL/6), and mice deficient in FXII (C57BL/6-FXII^−/−) or FVII (C57BL/6-FVII^tTA/tTA). WT C57BL/6 mice were purchased from Taconic. C57BL/6-FXII^−/− mice and C57BL/6-FVII^tTA/tTA mice were bred in our own facility and genotyped. The breeders were kindly provided by Dr. Francis J. Castellino at University of Notre Dame. […] CCl4 was dissolved in corn oil, whereas all other substances were dissolved in PBS. The vehicle or the test substance was given to mice in 0.1 ml volume per 20 g body weight. Blood was collected from the mice at specific times by cardiac puncture at the time of sacrifice by carbon dioxide, and heart, liver and kidney were also collected from some of the mice. Blood was collected into K3 EDTA-containing tubes (Multivette 600 from Sarstedt), unless specified otherwise. All blood samples were promptly centrifuged to obtain plasma samples.
Measurement of plasma levels of PEPD, SRC, Aβ1-42 and FI. […] The plates were washed three times with phosphate buffered saline tween-20 (PBST) and the coated wells were blocked by incubation with 200 μl/well of 1% BSA in PBS for at least 2 h at RT. After another round of wash with PBST, the plates were incubated with appropriately diluted Aβ1-42 standard, SRC standard or plasma samples (100 μl/well) for 2 h at RT. The plates were then washed with PBST and incubated with an anti-Aβ1-42 rabbit polyclonal antibody (sc-9129) or anti-SRC rabbit monoclonal antibody (2123) at 100 μl/well for 2 h at RT. The plates were washed again with PBST, and each well was incubated with a goat anti-rabbit IgG-HRP conjugate (100 μl) for 1 h at RT. After yet another round of wash with PBST, each well was incubated with 100 μl of HRP substrate 3,3′,5,5′-tetramethylbenzedine (Cell Signaling, 7004). Upon adequate color development, 100 μl of stop solution (Cell Signaling, 7002) was added to each well, and absorbance at 450 nm was promptly recorded by a microtiter plate reader. Plasma FI concentration was determined using an assay kit (400-374-130050) from GenWay Biotech, following the manufacturer's instruction.

[6] = test system: total plasma Aβ1-40 and Aβ1-42; assay: Total plasma level of Aβ1-40 and Aβ1-42 in J20 AD mice and WT mice by ELISA; conditions: for increase in total plasma levels of Aβ1-40 and Aβ1-42: EP 0.5 mg/kg i.p. daily 5 days
Description: as §1
Total plasma levels of Aβ1-40 and Aβ1-42 were measured by ELISA. Briefly, 96-well ELISA plates were coated with an anti-Aβ1-42 monoclonal antibody (sc-374527) at 0.25 μg/100 μl/well at 4° C. overnight. The plates were washed three times with phosphate buffered saline tween-20 (PBST) and the coated wells were blocked by incubation with 200 μl/well of 1% BSA in PBS for at least 2 h at RT. […] The plates were then washed with PBST and incubated with an anti-Aβ1-42 rabbit polyclonal antibody (sc-9129) at 100 μl/well for 2 h at RT. The plates were washed again with PBST, and each well was incubated with a goat anti-rabbit IgG-HRP conjugate (100 μl) for 1 h at RT. After yet another round of wash with PBST, each well was incubated with 100 μl of HRP substrate 3,3′,5,5′-tetramethylbenzedine (Cell Signaling, 7004). Upon adequate color development, 100 μl of stop solution (Cell Signaling, 7002) was added to each well, and absorbance at 450 nm was promptly recorded by a microtiter plate reader.

[7] = WT mice, EP 2.5 mg/kg daily 5 days, hPEPD 0.2 mg/kg
[8] = WT mice, EP 2.5 mg/kg i.p. daily 5 days

enoxaparin [EP] was tested, and the “elevation of average plasma hAβ1-40 concentration by EP pretreatment” value [1] was 77.4 fold, the “EP inhibition of hPEPD-induced slight activation of FX, FII and FVII” value ([2]; FXII−/− mice) was “largely inhibited by EP” and the “EP inhibition of activation of FX, FII and FVII” value ([2]; WT mice treated with hAβ1-42 40 μg/kg, EP 2.5 mg/kg daily 5 days) was “greatly inhibited the activation of FX, FII and FVII”. For the same substance, the “EP prevention of hPEPD-induced activation of FXII, PK, HMWK, FXI and FIX” value [2, 7] was “failed to prevent hPEPD from activating FXII, PK, HMWK, FXI and FIX”, the “EP prevention of hPEPD-induced activation or cleavage of FX, FII, FI and FVII” value [2, 7] was “prevented hPEPD from causing activation or cleavage of FX, FII, FI and FVII” and the “effect of EP itself on plasma coagulation factors” value [2, 8] was “had no effect on any of the FXII-FVII pathway factors measured; also recorded: had no effect on these factors”. The “EP effect on activation of FX, FII and FVII” value [3] was “inhibits the activation of FX, FII and FVII”, the “average plasma level of endogenous mAβ1-42, higher in EP-treated mice than in control mice” value [4] was 1.7 fold and the “plasma level of total Aβ1-42, increase after EP plus hAβ1-42” value ([4]; hAβ1-42 40 μg/kg 1 h after last dose, 6 h) was 406.0 fold. For the same substance, the “average plasma level of total PEPD in WT mice, lower than in FXII−/− mice” value ([5]; EP pretreatment, 6 h after hPEPD 0.2 mg/kg i.p.) was 14.6%, the “effect of EP on plasma PEPD level” value ([5]; FXII−/− mice, EP 2.5 mg/kg i.p. daily 5 days) was “did not show a significant effect” and the “plasma level of mPEPD, increase by EP” value [5, 8] was 2.0 fold and 2.1 fold. For the same substance, the “average plasma level of total PEPD, higher than with hPEPD alone” value ([5]; WT mice, EP 2.5 mg/kg i.p. daily 5 days, 1 h after hPEPD) was 35.2 fold, the “average plasma level of total PEPD, higher than with hPEPD alone” value ([5]; WT mice, EP 2.5 mg/kg i.p. daily 5 days, 24 h after hPEPD) was 63.8 fold and the “average plasma level of total PEPD” value ([5]; WT mice, EP pretreatment, 6 h after hPEPD 0.2 mg/kg i.p.) was 19.7 nM. For the same substance, the “reduction of hPEPD dose allowed by EP without decreasing its plasma concentration” value ([5]; mice, plasma concentration required for inhibition of ERBB2-driven tumors) was “at least 50 fold”, the “ratio of EP-induced increase in total plasma levels of Aβ1-40 and Aβ1-42 in AD mice to WT mice” value ([6]; 1 month of age) was 8.71-9.32 and the “ratio of EP-induced increase in total plasma levels of Aβ1-40 and Aβ1-42 in AD mice to WT mice” value ([6]; 3 month of age) was 47.53-56.85. For the same substance, the “increase in total plasma levels of Aβ1-40 and Aβ1-42” value ([6]; AD mice, 1 month of age) was “about 2.3 fold”, the “increase in total plasma levels of Aβ1-40 and Aβ1-42” value ([6]; AD mice, 3 month of age) was 3.6-4.2 fold and the “increase in total plasma levels of Aβ1-40 and Aβ1-42” value ([6]; WT mice at both 1 month and 3 months of age) was “about 1.6 fold”.

— US20180188270A1, “DIAGNOSTIC TEST FOR ALZHEIMER'S DISEASE BASED ON IDENTIFICATION OF A PROTEOLYTIC PATHWAY” (Health Research, Inc., priority 2015, published 2018)
